A short description of data set [1]: Apparent permeability across apical to basolateral side in human Caco-2 cells incubated for 180 mins by LC/MS/MS analysis. The conditions noted are these: for Papp A→B at 3 h: Caco-2. It is filed as ADME, cell-based. On the technique in general: Passage across Caco-2 layers is used to estimate intestinal permeability.
The nature of data set [2]: Intrinsic clearance in rat liver microsomes incubated for 15 mins in presence of NADPH by LC-MS analysis. It is filed as ADME, Microsome. The conditions noted are these: read-out: CLH.
A short description of data set [3]: Intrinsic clearance in human liver microsomes incubated for 15 mins in presence of NADPH by LC-MS analysis. The data set is classed as ADME, Microsome. Conditions: read-out: CLH.
Data set [4] is described as follows: Apparent permeability across basolateral to apical side in human Caco-2 cells incubated for 180 mins by LC/MS/MS analysis. The conditions noted are these: for Papp B→A at 3 h: Caco-2. The data set is classed as ADME, cell-based.
Data set [5] is described as follows: AUC(last) in Sprague-Dawley rat at 12 mg/kg, po measured for 24 hrs by LC/MS analysis. More on the design: time 24 hrs, dose 12 mg/kg, route po. The data set is classed as ADME, organism-based. The conditions noted are these: in vivo.
Data set [6] can be described thus: Oral bioavailability in Sprague-Dawley rat at 12 mg/kg measured for 24 hrs by LC/MS analysis. It is filed as ADME, organism-based. The conditions noted are these: in vivo.
Data set [7] is described as follows: Half-life in Sprague-Dawley rat at 12 mg/kg, po measured for 24 hrs by LC/MS analysis. It is filed as ADME, organism-based. The conditions noted are these: in vivo.
Data set [8] can be described thus: Cmax in Sprague-Dawley rat at 1 mg/kg, iv measured for 24 hrs by LC/MS analysis. It is filed as ADME, organism-based. More on the design: time 24 hrs, dose 1 mg/kg, route iv. Conditions: in vivo.
A short description of data set [9]: Cmax in Sprague-Dawley rat at 12 mg/kg, po measured for 24 hrs by LC/MS analysis. More on the design: dose 12 mg/kg, time 24 hrs, route po. Conditions: in vivo. It is filed as ADME, organism-based.
Data set [10] in a line: Half-life in Sprague-Dawley rat at 1 mg/kg, iv measured for 24 hrs by LC/MS analysis. The data set is classed as ADME, organism-based. The conditions noted are these: in vivo.
Data set [11] is described as follows: Tmax in Sprague-Dawley rat at 12 mg/kg, po measured for 24 hrs by LC/MS analysis. It is filed as ADME, organism-based. Conditions: in vivo.
Data set [12] in a line: AUC(last) in Sprague-Dawley rat at 1 mg/kg, iv measured for 24 hrs by LC/MS analysis. It is filed as ADME, organism-based. The arrangement: dose 1 mg/kg, time 24 hrs, route iv. The conditions noted are these: in vivo.
The nature of data set [13]: Clearance in Sprague-Dawley rat at 1 mg/kg, iv measured for 24 hrs by LC/MS analysis. The data set is classed as ADME, organism-based. Conditions: in vivo.
Data set [14] can be described thus: Drug uptake in Sprague-Dawley rat hypothalamus and pituitary at 12 mg/kg, po measured after 12 hrs by LC-MS/MS analysis. The data set is classed as ADME, organism-based, Hypothalamus/Pituitary gland. Conditions: read-out: Drug uptake.
A short description of data set [15]: Lipophilicity, log D of the compound at pH 7.4. The data set is classed as physicochemical. Conditions: buffer.
Data set [16] is described as follows: Drug uptake in Sprague-Dawley rat heart at 12 mg/kg, po measured after 1 hr by LC-MS/MS analysis. The data set is classed as ADME, organism-based. Conditions: read-out: Drug uptake.
Data set [17] is described as follows: Drug uptake in Sprague-Dawley rat hypothalamus and pituitary at 12 mg/kg, po measured after 1 hr by LC-MS/MS analysis. It is filed as ADME, organism-based, Hypothalamus/Pituitary gland. The conditions noted are these: read-out: Drug uptake.
A short description of data set [18]: Drug uptake in Sprague-Dawley rat hypothalamus and pituitary at 12 mg/kg, po measured after 4 hrs by LC-MS/MS analysis. Conditions: read-out: Drug uptake. It is filed as ADME, organism-based, Hypothalamus/Pituitary gland.

Here are results for eleven compounds from ChEMBL document CHEMBL5346862, “Discovery of the thieno[2,3-d]pyrimidine-2,4-dione derivative 21a: A potent and orally bioavailable gonadotropin-releasing hormone receptor antagonist” (Eur J Med Chem, 2022).

Each structure is given as a SMILES string.

A word on the Papp A→B: it is the apparent permeability from the apical to the basolateral side of a cell layer. In general, Papp B→A refers to the apparent permeability from the basolateral to the apical side of a cell layer. The term AUC(0-t) denotes the area under the concentration-time curve up to a stated or last time point. Lower therefore signals less exposure. In general, bioavailability refers to dose-corrected exposure relative to a reference, in per cent. A high value points to good availability. A word on the half-life: it is the time needed for the level to fall by half in the phase considered. High values mean slow decline, low ones rapid decline. Usually Cmax stands for the maximum level reached in the sampled fluid or tissue. The term Tmax denotes the time from dosing to the highest level. The term clearance denotes the volume of plasma or blood freed of the substance per unit of time. Read a low clearance as inefficient removal. The logD is lipophilicity at a set pH, counting ionised and neutral species. A lower logD goes with a more hydrophilic compound.

Turning to `CONC(=O)Nc1ccc(-c2sc3c(c2CN(C)C)c(=O)n(-c2ccc(OC)nn2)c(=O)n3Cc2c(F)cccc2C(F)(F)F)cc1`, in data set [1], the Papp A→B at 3 h was 0.011 ×10⁻⁶ cm/s. The CLint scaled at […] in data set [2] is under 13.5 mL/min/kg; in [3], under 6.75 mL/min/kg. Further, in data set [4], the Papp B→A at 3 h was 4.58 ×10⁻⁶ cm/s.

Regarding `C[C@H]1O[C@@H](O[C@H]2[C@@H](O)C[C@H](O[C@H]3[C@@H](O)C[C@H](O[C@H]4CC[C@@]5(C)[C@H](CC[C@@H]6[C@@H]5C[C@@H](O)[C@]5(C)[C@@H](C7=CC(=O)OC7)CC[C@]65O)C4)O[C@@H]3C)O[C@@H]2C)C[C@H](O)[C@@H]1O` [DIGOXIN], the Papp A→B at 3 h in data set [1] turned out to be 0.013 ×10⁻⁶ cm/s. The Papp B→A at 3 h in [4] was 12.8 ×10⁻⁶ cm/s.

As for `CNc1ccc(-n2c(=O)c3c(CN(C)C)c(-c4ccc(NC(=O)NOC)cc4)sc3n(Cc3c(F)cccc3F)c2=O)nn1`, the Papp A→B at 3 h in data set [1] was 0.05 ×10⁻⁶ cm/s. Besides, the CLint scaled at […] was 34.9 mL/min/kg in [2] and under 6.75 mL/min/kg in data set [3]. Further, the Papp B→A at 3 h in data set [4] was determined as 0.5 ×10⁻⁶ cm/s.

As for `CONC(=O)Nc1ccc(-c2sc3c(c2CN(C)CCOC(F)(F)F)c(=O)n(-c2ccc(OC)nn2)c(=O)n3Cc2c(F)cccc2F)cc1`, the Papp A→B at 3 h in data set [1] is 0.984 ×10⁻⁶ cm/s. Further, the AUC(0-t) at 24 h in data set [5] came out at 7.37 µM·h; in data set [12], 1.37 µM·h. The same compound yielded a bioavailability in data set [6] of 44.7%. Moreover, the CLint scaled at […] in data set [2] turned out to be 37.1 mL/min/kg; in data set [3], 14.2 mL/min/kg. For the same compound, the results for the half-life in [7] and in data set [10] were 4.86 h and 2.79 h, respectively. Moreover, the Cmax in [8] turned out to be 3920 nM; in data set [9], 920 nM. In addition, the Tmax in data set [11] was found to be 1.13 h. In addition, the clearance in [13] was 17.5 mL/min/kg.

With `CCc1ccc(-n2c(=O)c3c(CN(C)C)c(-c4ccc(NC(=O)NOC)cc4)sc3n(Cc3c(F)cccc3F)c2=O)nn1`, the Papp A→B at 3 h in data set [1] was determined as 0.013 ×10⁻⁶ cm/s. Besides, the CLint scaled at […] was found to be 31.3 mL/min/kg in data set [2] and 17.6 mL/min/kg in data set [3]. For the same compound, in [4], the apparent permeability from basolateral to apical (Papp B→A) at 3 h came to 10.2 ×10⁻⁶ cm/s.

Consider `CONC(=O)Nc1ccc(-c2sc3c(c2CN(C)C)c(=O)n(-c2ccc(OC)nn2)c(=O)n3Cc2c(F)cccc2F)cc1` [RELUGOLIX], for which the Papp was 0.007 10^-6 cm/s in data set [1] (caco-2, 3 h) and 13.84 10^-6 cm/s in data set [4] (caco-2, 3 h). The results for the AUC(0-t) at 24 h in data set [5] and in data set [12] were 0.234 µM·h and 0.34 µM·h, respectively. Further, the concentration at 12 h in [14] amounted to 3.2 ng/g. The bioavailability in [6] turned out to be 5.7%. The figures for the CLint scaled at […] in data set [2] and in data set [3] were 29.5 mL/min/kg and 5.22 mL/min/kg, respectively. In data set [15], this compound returned a log distribution coefficient (logD) of 1.24. In addition, the concentration at 1 h in data set [16] was 429 ng/g; in data set [17], 4.46 ng/g. Moreover, the half-life in data set [7] is 3.88 h; in [10], 3.64 h. Besides, the Cmax stood at 544 nM in data set [8] and 35.3 nM in data set [9]. The Tmax in data set [11] amounted to 0.33 h. Moreover, the concentration at 4 h in data set [18] amounted to 9.2 ng/g. This compound gave a clearance in data set [13] of 78.3 mL/min/kg.

With `COc1ccc(-n2c(=O)c3c(CN(C)C)c(-c4ccc(NC(=O)NOCC(F)(F)F)cc4)sc3n(Cc3c(F)cccc3F)c2=O)nn1`, the Papp A→B at 3 h in [1] was found to be 0.009 ×10⁻⁶ cm/s. Moreover, the CLint scaled at […] was 38.9 mL/min/kg in data set [2] and under 6.75 mL/min/kg in data set [3]. Moreover, the Papp B→A at 3 h in data set [4] came out at 17.2 ×10⁻⁶ cm/s.

Take `CONC(=O)Nc1ccc(-c2sc3c(c2CN(C)C)c(=O)n(-c2ccc(OC(F)F)nn2)c(=O)n3Cc2c(F)cccc2F)cc1`: the Papp A→B at 3 h in data set [1] was 0.019 ×10⁻⁶ cm/s. In addition, the CLint scaled at […] in [2] is 16.6 mL/min/kg; in data set [3], under 6.75 mL/min/kg. Besides, the Papp B→A at 3 h in data set [4] was 15.1 ×10⁻⁶ cm/s.

`CONC(=O)Nc1ccc(-c2sc3c(c2CN(C)C)c(=O)n(-c2cccc(OC)c2F)c(=O)n3Cc2c(F)cccc2F)cc1`: the Papp A→B at 3 h in data set [1] was determined as 0.051 ×10⁻⁶ cm/s. Moreover, the figures for the CLint scaled at […] in data set [2] and in data set [3] were 211 mL/min/kg and 52 mL/min/kg, respectively. Besides, in data set [4], the Papp B→A at 3 h stood at 21.1 ×10⁻⁶ cm/s.

In the case of `COc1ccc(-n2c(=O)c3c(CN(C)C)c(-c4ccc(NC(=O)NOCC(F)F)cc4)sc3n(Cc3c(F)cccc3F)c2=O)nn1`, the Papp A→B at 3 h in [1] is 0.01 ×10⁻⁶ cm/s. In addition, the CLint scaled at […] came out at 45.4 mL/min/kg in [2] and 7.38 mL/min/kg in data set [3]. In addition, the Papp B→A at 3 h in [4] is 15.7 ×10⁻⁶ cm/s.

On to `COCCN(C)Cc1c(-c2ccc(NC(=O)NOC)cc2)sc2c1c(=O)n(-c1ccc(OC)nn1)c(=O)n2Cc1c(F)cccc1F`, for which, in [1], the Papp A→B at 3 h was found to be 0.031 ×10⁻⁶ cm/s. Also, the AUC(0-t) at 24 h was found to be 0.904 µM·h in [5] and 0.689 µM·h in data set [12]. This compound returned a bioavailability in data set [6] of 10.9%. Besides, the results for the CLint scaled at […] in [2] and in [3] were 15.8 mL/min/kg and under 6.75 mL/min/kg, respectively. The half-life in data set [7] was 4.33 h; in [10], 2.6 h. The Cmax came to 1230 nM in [8] and 329 nM in data set [9]. Besides, in data set [11], the time of peak concentration (Tmax) is 0.31 h. The compound further had a clearance in data set [13] of 38.7 mL/min/kg. The Papp B→A at 3 h in data set [4] is 42.2 ×10⁻⁶ cm/s.
